Source: ChEMBL document CHEMBL3112426, “Discovery of a new binding site on human choline kinase α1: design, synthesis, crystallographic studies, and biological evaluation of asymmetrical bispyridinium derivatives” (J Med Chem, 2014)
Activity calls are given as the source filed them. No cut-off for these calls is given here.

Assays:
[1] = Inhibition of choline kinase in human HepG2 cells assessed as incorporation of [14C] from [methyl-14C]choline into phosphocholine after 20 mins by liquid scintillation counting analysis; type: cell-based
[2] = tested on: HeLa; test: Cell cycle arrest in human HeLa cells assessed as accumulation at G0/G1 phase at 10 uM after 24 hrs by FACS flow cytometric analysis (reference value: 69.9 +/- 2.41%); type: functional
[3] = tested on: HeLa; test: Induction of apoptosis in human HeLa cells at 10 uM after 24 hrs by annexin V-FITC/propidium iodide staining-based FACS flow cytometric analysis; type: functional, cell-based
[4] = tested on: HeLa; test: Cell cycle arrest in human HeLa cells assessed as accumulation at G2/M phase at 10 uM after 24 hrs by FACS flow cytometric analysis (reference value: 3.9 +/- 0.10%); type: functional
[5] = tested on: HeLa; test: Antiproliferative activity against human HeLa cells after 48 hrs by MTT assay; type: functional, cell-based
[6] = tested on: HeLa; test: Cell cycle arrest in human HeLa cells assessed as accumulation at S phase at 10 uM after 24 hrs by FACS flow cytometric analysis (reference value: 25 +/- 2.53%); type: functional
[7] = target: Choline kinase alpha (Homo sapiens, UniProt P35790); test: Binding affinity to human CK-alpha1 by tryptophan fluorescence spectroscopic analysis
[8] = tested on: HeLa; test: Induction of apoptosis in human HeLa cells assessed as upregulation of caspase-3 protein expression after 12 to 48 hrs by Western blot analysis; type: functional, cell-based
[9] = target: Choline/ethanolamine kinase (Homo sapiens, UniProt Q9Y259); test: Binding affinity to human CK-beta by tryptophan fluorescence spectroscopic analysis
[10] = tested on: HeLa; test: Induction of apoptosis in human HeLa cells at 10 uM after 24 hrs by annexin V-FITC/propidium iodide staining-based FACS flow cytometric analysis (reference value: 14.8%); type: functional
[11] = organism: Homo sapiens; test: Selectivity ratio of Kd for human CK-beta to Kd for human CK-alpha1

Chain of Choline kinase alpha (P35790 whole entry): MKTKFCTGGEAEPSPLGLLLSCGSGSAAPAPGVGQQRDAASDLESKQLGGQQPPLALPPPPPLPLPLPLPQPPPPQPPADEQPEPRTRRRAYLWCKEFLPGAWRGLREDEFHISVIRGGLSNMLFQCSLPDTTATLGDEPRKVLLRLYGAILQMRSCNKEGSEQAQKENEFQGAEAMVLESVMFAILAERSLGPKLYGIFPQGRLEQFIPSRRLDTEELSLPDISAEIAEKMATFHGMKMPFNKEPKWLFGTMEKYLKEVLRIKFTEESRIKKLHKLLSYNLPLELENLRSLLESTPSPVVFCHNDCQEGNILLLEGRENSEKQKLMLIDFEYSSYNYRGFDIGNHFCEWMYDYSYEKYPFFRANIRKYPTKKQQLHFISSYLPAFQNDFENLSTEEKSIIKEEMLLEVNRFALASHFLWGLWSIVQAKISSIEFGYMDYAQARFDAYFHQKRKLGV
Chain of Choline/ethanolamine kinase (Q9Y259 whole entry): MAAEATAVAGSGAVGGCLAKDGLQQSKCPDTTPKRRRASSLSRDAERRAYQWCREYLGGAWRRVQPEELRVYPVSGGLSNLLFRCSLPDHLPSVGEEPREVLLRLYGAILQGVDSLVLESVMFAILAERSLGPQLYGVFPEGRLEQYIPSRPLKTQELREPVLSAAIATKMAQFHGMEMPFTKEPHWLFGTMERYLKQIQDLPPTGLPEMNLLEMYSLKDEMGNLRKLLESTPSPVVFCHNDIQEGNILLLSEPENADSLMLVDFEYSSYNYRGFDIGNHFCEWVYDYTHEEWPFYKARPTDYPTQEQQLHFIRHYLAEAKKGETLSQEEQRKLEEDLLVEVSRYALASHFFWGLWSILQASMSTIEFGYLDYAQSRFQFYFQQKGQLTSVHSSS

Row | Structure (SMILES) | IC50 [1] [nM] | Activity [2] [%] | Activity [3] | Activity [4] [%] | IC50 [5] | Activity [6] [%] | Kd [7] [nM] | Activity [8] | Kd [9] [nM] | Activity [10] [%] | Selectivity ratio [11]
1 | CN(C)c1cc[n+](Cc2ccc(CCCCc3ccc(C[n+]4ccc(N5CCCC5)cc4)cc3)cc2)cc1.[Br-].[Br-] | 900 | 77.8 | Active | 2.8 | 2100 nM | 19.2 | – | – | – | – | –
2 | CN(c1ccc(Cl)cc1)c1cc[n+](Cc2ccc(CCCCc3ccc(C[n+]4ccc(N5CCCC5)cc4)cc3)cc2)cc1.[Br-].[Br-] | 1500 | 83.3 | Active | 1.3 | 2100 nM | 15.4 | – | – | – | – | –
3 | CN(C)c1cc[n+](Cc2ccc(-c3ccc(C[n+]4ccc(N5CCCC5)cc4)cc3)cc2)cc1.[Br-].[Br-] | 800 | 72.8 | Active | 2.7 | 3700 nM | 24.5 | – | – | – | – | –
4 | CN(c1ccc(Cl)cc1)c1cc[n+](Cc2ccc(-c3ccc(C[n+]4ccc(N5CCCC5)cc4)cc3)cc2)cc1.[Br-].[Br-] | 2200 | 73.1 | Active | 3.1 | 4100 nM | 23.8 | – | – | – | – | –
5 | CN(C)c1cc[n+](Cc2ccc(CCc3ccc(C[n+]4ccc(N(C)c5ccc(Cl)cc5)cc4)cc3)cc2)cc1.[Br-].[Br-] | 700 | 83.3 | Active | 1.8 | 1300 nM | 14.9 | – | – | – | – | –
6 | CN(C)c1cc[n+](Cc2ccc(CCc3ccc(C[n+]4ccc(N5CCCC5)cc4)cc3)cc2)cc1.[Br-].[Br-] | 1200 | 72.5 | Active | 2.6 | 8600 nM | 24.9 | 400 | – | – | – | –
7 | CC(=O)O[C@H]1C(=O)[C@@]2(C)[C@H]([C@H](OC(=O)c3ccccc3)[C@]3(O)C[C@H](OC(=O)[C@H](O)[C@@H](NC(=O)c4ccccc4)c4ccccc4)C(C)=C1C3(C)C)[C@]1(OC(C)=O)CO[C@@H]1C[C@@H]2O [PACLITAXEL] | – | – | – | – | 8 ng/mL | – | – | Dose-dependent effect | – | – | –
8 | CN(C)c1cc[n+](Cc2ccc(CCCCc3ccc(C[n+]4ccc(N(C)c5ccc(Cl)cc5)cc4)cc3)cc2)cc1.[Br-].[Br-] | 1200 | 85.9 | Active | 0.9 | 1900 nM | 12.8 | – | Dose-dependent effect | 22000 | 55.6 | 200
9 | CN(C)c1cc[n+](Cc2ccc(C[n+]3ccc(N(C)c4ccc(Cl)cc4)cc3)cc2)cc1 | 900 | – | – | – | 24600 nM | – | – | – | – | – | –
10 | CN(c1ccc(Cl)cc1)c1cc[n+](Cc2ccc(C[n+]3ccc(N4CCCC4)cc3)cc2)cc1 | 600 | – | – | – | 48100 nM | – | – | – | – | – | –
11 | CN(C)c1cc[n+](Cc2ccc(-c3ccc(C[n+]4ccc(N(C)c5ccc(Cl)cc5)cc4)cc3)cc2)cc1 | 1500 | – | – | – | 11700 nM | – | 620 | – | – | – | –
12 | CN(C)c1cc[n+](Cc2ccc(C[n+]3ccc(N4CCCC4)cc3)cc2)cc1 | 8000 | – | – | – | 15900 nM | – | – | – | – | – | –
13 | CN(c1ccc(Cl)cc1)c1cc[n+](Cc2ccc(CCc3ccc(C[n+]4ccc(N5CCCC5)cc4)cc3)cc2)cc1.[Br-].[Br-] | 2500 | 77 | Active | 2.2 | 9400 nM | 20.8 | – | – | – | – | –
